# Measured values as given in patent EP1210950B1, “Composition against Coccidiosis” (New Pharma Research Sweden AB, priority 2000, dated 2002).
# How the values were obtained:
# Eimeria spp.oocysts [1] = experiment: Anticoccidiocidal activity, test A2 (oocyst count in faeces of infected chickens, medicated feed); type: in vivo; conditions: 22 birds in each group
# Source text: A total of 88 one day old Habbared X breed chickens were used in the test. They were allocated into 4 groups (22 birds in each group), one group serving as a control group.
# (§1) Each composition to be tested was mixed in a sufficient amount of feed for each group and was used for daily feeding from the day zero of the test. Fresh water was supplied ad-libetum.
# Eimeria spp.oocysts [2] = experiment: Anticoccidiocidal activity, test A1 (oocyst count in faeces of infected chickens, medicated feed); type: in vivo; conditions: 23 birds in each group
# Source text: A total of 92 one day old Habbared X breed chickens were used in the test. They were allocated into 4 groups (23 birds in each group), one group serving as a control group.
# as §1
# Eimeria spp.oocysts [3] = experiment: Anticoccidiocidal activity, test A3 (single components; oocyst count in faeces, Mc-Master technique); type: in vivo, chickens; conditions: 20 birds in each group; for Mean No. of Eimeria spp.oocysts/gram faeces/group, 5 d.p.i. / Mean No. of Eimeria spp.oocysts/gram faeces/group, 6 d.p.i. / Mean No. of Eimeria spp.oocysts/gram faeces/group, 7 d.p.i. / Mean No. of Eimeria spp.oocysts/gram faeces/group, 8 d.p.i. / Mean No. of Eimeria spp.oocysts/gram faeces/group, 9 d.p.i. / Mean No. of Eimeria spp.oocysts/gram faeces/group, 10 d.p.i. / Mean No. of Eimeria spp.oocysts/gram faeces/group, 12 d.p.i.: during feeding with tested product; for Mean No. of Eimeria spp.oocysts/gram faeces/group, 5 d.p.i.: oral infection with mixture of 5 Eimeria strains, ppm in feed as given per group; for Total number of oocysts: sum of 5-12 d.p.i.
# Source text: A total of 100 one day old Habbared X breed chickens were used in the test. They were reared on un-medicated feed as one group during the first 3 days. After that they were allocated into 5 groups (20 each) in 5 separate (1 x 1 meter) pens. With the beginning of the day 8 of bird life, the composition to be tested was mixed into the feed of each group and was used for daily feeding. Fresh water was supplied ad-libetum. The test groups were: [table] The birds were kept on medicated feed for totally […]. […] Eimeria acervulina, E. maxima, E. necatrix, E. tenella and E. brunetti. Fresh fecal droplets were collected daily from the 4th day post experimental infection until day 13 post infection. Mean number of oocyst per gram […] for each group were calculated using the Mc-Master technique according to Soulsby (1984).
# [4] = 6 d.p.i., during feeding with tested product, ppm in feed as given per group
# [5] = 7 d.p.i., during feeding with tested product
# [6] = 8 d.p.i., during feeding with tested product
# [7] = 9 d.p.i., during feeding with tested product
# [8] = 10 d.p.i., during feeding with tested product
# [9] = 11 d.p.i., during feeding with tested product
# [10] = 12 d.p.i., during feeding with tested product
# [11] = 13 d.p.i., during feeding with tested product
SMILES,"Mean No. of Eimeria spp.oocysts/gram faeces/group, 5 d.p.i. (Eimeria spp.oocysts [3])","Mean No. of Eimeria spp.oocysts/gram faeces/group, 6 d.p.i. (Eimeria spp.oocysts [3])","Mean No. of Eimeria spp.oocysts/gram faeces/group, 7 d.p.i. (Eimeria spp.oocysts [3])","Mean No. of Eimeria spp.oocysts/gram faeces/group, 8 d.p.i. (Eimeria spp.oocysts [3])","Mean No. of Eimeria spp.oocysts/gram faeces/group, 9 d.p.i. (Eimeria spp.oocysts [3])","Mean No. of Eimeria spp.oocysts/gram faeces/group, 10 d.p.i. (Eimeria spp.oocysts [3])","Mean No. of Eimeria spp.oocysts/gram faeces/group, 12 d.p.i. (Eimeria spp.oocysts [3])",Total number of oocysts (Eimeria spp.oocysts [3]),other results
Cc1nc(C)c(Cl)c(O)c1Cl [Clopidol],,,,,,,,,"Mean No. of Eimeria spp.oocysts/gram faeces/group, 6 d.p.i. (Eimeria spp.oocysts [1]; [4]): 2 oocysts/gram faeces/group (number per thousand oocysts); Mean No. of Eimeria spp.oocysts/gram faeces/group, 7 d.p.i. (Eimeria spp.oocysts [1]; [5]): 900 oocysts/gram faeces/group (number per thousand oocysts); Mean No. of Eimeria spp.oocysts/gram faeces/group, 8 d.p.i. (Eimeria spp.oocysts [1]; [6]): 1300 oocysts/gram faeces/group (number per thousand oocysts); Mean No. of Eimeria spp.oocysts/gram faeces/group, 9 d.p.i. (Eimeria spp.oocysts [1]; [7]): 980 oocysts/gram faeces/group (number per thousand oocysts); Mean No. of Eimeria spp.oocysts/gram faeces/group, 10 d.p.i. (Eimeria spp.oocysts [1]; [8]): 1500 oocysts/gram faeces/group (number per thousand oocysts); Mean No. of Eimeria spp.oocysts/gram faeces/group, 11 d.p.i. (Eimeria spp.oocysts [1]; [9]): 200 oocysts/gram faeces/group (number per thousand oocysts); Mean No. of Eimeria spp.oocysts/gram faeces/group, 12 d.p.i. (Eimeria spp.oocysts [1]; [10]): 200 oocysts/gram faeces/group (number per thousand oocysts); Mean No. of Eimeria spp.oocysts/gram faeces/group, 13 d.p.i. (Eimeria spp.oocysts [1]; [11]): 130 oocysts/gram faeces/group (number per thousand oocysts); Total number of oocysts (Eimeria spp.oocysts [1]; sum of 6-13 d.p.i.): 5212 oocysts/gram faeces/group (number per thousand oocysts); Mean No. of Eimeria spp.oocysts/gram faeces/group, 6 d.p.i. (Eimeria spp.oocysts [2]; [4]): 8 oocysts/gram faeces/group (number per thousand oocysts); Mean No. of Eimeria spp.oocysts/gram faeces/group, 7 d.p.i. (Eimeria spp.oocysts [2]; [5]): 9600 oocysts/gram faeces/group (number per thousand oocysts); Mean No. of Eimeria spp.oocysts/gram faeces/group, 8 d.p.i. (Eimeria spp.oocysts [2]; [6]): 1872 oocysts/gram faeces/group (number per thousand oocysts); Mean No. of Eimeria spp.oocysts/gram faeces/group, 9 d.p.i. (Eimeria spp.oocysts [2]; [7]): 3900 oocysts/gram faeces/group (number per thousand oocysts); Mean No. of Eimeria spp.oocysts/gram faeces/group, 10 d.p.i. (Eimeria spp.oocysts [2]; [8]): 420 oocysts/gram faeces/group (number per thousand oocysts); Mean No. of Eimeria spp.oocysts/gram faeces/group, 11 d.p.i. (Eimeria spp.oocysts [2]; [9]): 14 oocysts/gram faeces/group (number per thousand oocysts); Mean No. of Eimeria spp.oocysts/gram faeces/group, 12 d.p.i. (Eimeria spp.oocysts [2]; [10]): 53 oocysts/gram faeces/group (number per thousand oocysts); Mean No. of Eimeria spp.oocysts/gram faeces/group, 13 d.p.i. (Eimeria spp.oocysts [2]; [11]): 250 oocysts/gram faeces/group (number per thousand oocysts); Total number of oocysts (Eimeria spp.oocysts [2]; sum of 6-13 d.p.i.): 16117 oocysts/gram faeces/group (number per thousand oocysts)"
"NC(N)=Nc1nc(CSCCC(N)=NS(N)(=O)=O)cs1 [Famo-tidine, Famotidine]",0.0 oocysts/gram faeces/group (number per thousand oocysts),0.0 oocysts/gram faeces/group (number per thousand oocysts),160 oocysts/gram faeces/group (number per thousand oocysts),280 oocysts/gram faeces/group (number per thousand oocysts),460 oocysts/gram faeces/group (number per thousand oocysts),10 oocysts/gram faeces/group (number per thousand oocysts),0 oocysts/gram faeces/group (number per thousand oocysts),910 oocysts/gram faeces/group (number per thousand oocysts),
"CN[C@@H]1[C@H](O[C@H]2[C@H](O[C@H]3[C@H](O)[C@@H](O)[C@H](NC(=N)N)[C@@H](O)[C@@H]3NC(=N)N)O[C@@H](C)[C@]2(O)CO)O[C@@H](CO)[C@H](O)[C@H]1O [dihydro-streptomycin, dihydrostreptomycin]",0.0 oocysts/gram faeces/group (number per thousand oocysts),38 oocysts/gram faeces/group (number per thousand oocysts),710 oocysts/gram faeces/group (number per thousand oocysts),138 oocysts/gram faeces/group (number per thousand oocysts),138 oocysts/gram faeces/group (number per thousand oocysts),0 oocysts/gram faeces/group (number per thousand oocysts),,956 oocysts/gram faeces/group (number per thousand oocysts),
Nc1nc2ncc(CNc3ccc(C(=O)N[C@@H](CCC(=O)O)C(=O)O)cc3)nc2c(=O)[nH]1 [folic acid],0 oocysts/gram faeces/group (number per thousand oocysts),22 oocysts/gram faeces/group (number per thousand oocysts),251 oocysts/gram faeces/group (number per thousand oocysts),310 oocysts/gram faeces/group (number per thousand oocysts),220 oocysts/gram faeces/group (number per thousand oocysts),3 oocysts/gram faeces/group (number per thousand oocysts),0 oocysts/gram faeces/group (number per thousand oocysts),806 oocysts/gram faeces/group (number per thousand oocysts),
